US20080274104A1, “Targeting a Secreted Pro-Apoptotic Factor for Cancer Therapeutics” (priority 2005, published 2008)
Where “and” joins values, the source holds several entries; their conditions need not be identical. Identical values can stand only once.

Legend:
[1] = system: NGAL expression in SKBr3 cell line; experiment: NGAL expression in breast cancer cell line; format: cell-based, human
Text: Several breast cancer cell lines were examined for NGAL expression.

[2] = system: C3H/HeJ mice; experiment: C3H/HeJ mouse leukemia model injected with BCR-ABL+ 32D cells; format: in vivo; conditions: individual mouse
Protocol: Therefore, the present inventors wanted to determine whether the affects of anti-sense 24p3 expression in leukemia cells would produce the same effects as in the NOD/scid mouse. In these experiments, 10e6 BCR-ABL+32D cells were injected iv into 8-week old C3H/HeJ mice. Leukemia cells expressed either GFP or anti-sense 24p3 RNA or siRNA for 24p3. The GFP expressing leukemia cells induced a vigorous leukemia involving marrow, spleen, blood and liver (Table 2). Expression of anti-sense 24p3 in leukemia cells reduced the level of invasion in marrow and the spleen but not the liver. Importantly, these mice developed a vigorous ascites tumor growth of GFP+ cells, which was not observed in the GFP vector expressing leukemia cells. […]

[3] = system: suitable targets cells; experiment: Apoptosis induction with purified 24p3/NGAL; format: cell-based; conditions: GST-bacterial method protein
Text: These findings indicate that the Bcr-Abl oncoprotein in addition to its oncogenic effects also induces secretion of an apoptotic factor (24p3/NGAL) that causes suppression of normal hematopoiesis. […] Detailed structural analysis has shown that NGAL is an iron binding protein, and that the ligand for NGAL is a catecholate-type siderophore (Goetz et al., 2002). Whether the siderophore binding function is related to 24p3/NGAL's ability to induce apoptosis is not known. In specific embodiments, the apoptotic activity of 24p3/NGAL may require either post-translational modification in eukaryotic cells or formation of a complex with one or more factors. […] Local suppression of normal hematopoiesis by 24p3/NGAL secreted by leukemia cells would allow the leukemic clone to more readily compete, survive, infiltrate and proliferate in normal marrow and the spleen tissue environment. […] Thus, as little as one pluripotent stem cell that has acquired BCR-ABL expression by forming the Philadelphia chromosome could survive and compete in the normally active marrow environment because of its ability to secrete a cell death factor (and possibly other factors; Eaves et al., 1998; Olofsson and Olsson, 1980; Olofsson and Olsson, 1980; Skold et al., 1999) to which it is resistant. The ensuing cell death in the surrounding marrow cells would facilitate expansion of the leukemic clone in the normal marrow. […]

Cc1ccc(S(=O)(=O)/C=C/C#N)cc1 [BAY11-7082]
NGAL expression [1]: strongly inhibited

siRNA #4: small hairpin RNA against 24p3 driven by H1 promoter, SEQ ID NO:1 (DNA GGCAGCTTTACGATGTACATTCAAGAGATGTACATCGTAAAGCTGCCTTTTTTCCAAT; expressed or natural sequence)
Ascites [2]: Yes | Solid tumor [2]: Yes | GFP positive cells, Ascites ([2]; listed as 32Dp210 siRNA): 90% (2×) and 80% and 100% (2×) | GFP positive cells, BM ([2]; listed as 32Dp210 siRNA): <1% and 5% (3×) and No | GFP positive cells, Liver ([2]; listed as 32Dp210 siRNA): 20% and 50% and 40% and 10% and 25% | GFP positive cells, PB ([2]; listed as 32Dp210 siRNA): 50% and <1% and 20% | GFP positive cells, Spleen ([2]; listed as 32Dp210 siRNA): 5% and 25% and <1% and No and 20% | GFP positive cells, Tumor ([2]; listed as 32Dp210 siRNA): 40% and 70% | Spleen wt ([2]; listed as 32Dp210 siRNA): 160 mg and 110 mg and 40 mg and 90 mg and 130 mg

B1: purified 24p3/NGAL: purified 24p3/NGAL lipocalin protein made by GST-bacterial method (protein, UniProt P11672 21-200, looked up)
Neutrophil …: QDSTQNLIPAPSLLTVPLQPDFRSDQFRGRWYVVGLAGNAVQKKTEGSFTMYSTIYELQENNSYNVTSILVRDQDQGCRYWIRTFVPSSRAGQFTLGNMHRYPQVQSYNVQVATTDYNQFAMVFFRKTSENKQYFKITLYGRTKELSPELKERFTRFAKSLGLKDDNIIFSVPTDQCIDN
apoptosis induction [3]: unable to induce apoptosis
